Reference: PubChem BioAssay AID1918995 (Molecular Pharmacology Branch, DTP, NCI, 2023)

Tested on: 324938-238-R-J1-PDC complex spheroid growth, % test/control
Test: Anticancer human tumor 324938-238-R-J1-PDC patient-derived bladder carcinoma cell line growth inhibition [AhR]
Conditions: for IC50: curve of first compound; for viability, T/C: stronger effect = lower value
Outline: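 Agents were dosed in half-log steps down from roughly clinical Cmax, or from 10 microM where Cmax was unknown, alone and with AhR antagonists. Read-out: percent test/control growth of tumor spheroids containing HUVEC and MSC stromal cells.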

[1] = second compound 0.1 µM, first compound 0.0316 µM
[2] = second compound 0.1 µM, first compound 0.1 µM
[3] = second compound 0.1 µM, first compound 0.316 µM
[4] = second compound 0.1 µM, first compound 1 µM
[5] = second compound 0.1 µM, first compound 3.16 µM
[6] = second compound 0.1 µM, first compound 10 µM
[7] = second compound 0.316 µM, first compound 0.0316 µM
[8] = second compound 0.316 µM, first compound 0.1 µM
[9] = second compound 0.316 µM, first compound 0.316 µM
[10] = second compound 0.316 µM, first compound 1 µM
[11] = second compound 0.316 µM, first compound 3.16 µM
[12] = second compound 0.316 µM, first compound 10 µM
[13] = second compound 1 µM, first compound 0.0316 µM
[14] = second compound 1 µM, first compound 0.1 µM
[15] = second compound 1 µM, first compound 0.316 µM
[16] = second compound 1 µM, first compound 1 µM
[17] = second compound 1 µM, first compound 3.16 µM
[18] = second compound 1 µM, first compound 10 µM
[19] = second compound 3.16 µM, first compound 0.0316 µM
[20] = second compound 3.16 µM, first compound 0.1 µM
[21] = second compound 3.16 µM, first compound 0.316 µM
[22] = second compound 3.16 µM, first compound 1 µM
[23] = second compound 3.16 µM, first compound 3.16 µM
[24] = second compound 3.16 µM, first compound 10 µM
[25] = second compound 10 µM, first compound 0.0316 µM
[26] = second compound 10 µM, first compound 0.1 µM
[27] = second compound 10 µM, first compound 0.316 µM
[28] = second compound 10 µM, first compound 1 µM
[29] = second compound 10 µM, first compound 3.16 µM
[30] = second compound 10 µM, first compound 10 µM
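Further: spheroids exposed to agents for seven days before viability read.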

SMILES: CC(C)c1c(-c2ccccc2)nc2c(C#N)c[nH]n2c1=O + Cc1cncc(-c2nc(NCCc3c[nH]c4ccccc34)c3ncn(C(C)C)c3n2)c1
- IC50 (second compound 0.1 µM): > 10000 nM
- IC50 (second compound 0.316 µM): > 10000 nM
- IC50 (second compound 1 µM): > 10000 nM
- IC50 (second compound 3.16 µM): > 10000 nM
- IC50 (second compound 10 µM): < 31.6 nM
- viability, T/C [1]: 127%
- viability, T/C [2]: 85.5%
- viability, T/C [3]: 95.3%
- viability, T/C [4]: 63.9%
- viability, T/C [5]: 69.6%
- viability, T/C [6]: 146%
- viability, T/C [7]: 124%
- viability, T/C [8]: 129%
- viability, T/C [9]: 89.1%
- viability, T/C [10]: 102%
- viability, T/C [11]: 113%
- viability, T/C [12]: 96.4%
- viability, T/C [13]: 119%
- viability, T/C [14]: 85.3%
- viability, T/C [15]: 83.5%
- viability, T/C [16]: 90.8%
- viability, T/C [17]: 130%
- viability, T/C [18]: 102%
- viability, T/C [19]: 101%
- viability, T/C [20]: 68.8%
- viability, T/C [21]: 76.8%
- viability, T/C [22]: 63.8%
- viability, T/C [23]: 75.8%
- viability, T/C [24]: 102%
- viability, T/C [25]: 2.26%
- viability, T/C [26]: 3.22%
- viability, T/C [27]: 2.43%
- viability, T/C [28]: 3.77%
- viability, T/C [29]: 3.8%
- viability, T/C [30]: 1.68%

SMILES: CC1COCCN1c1cc(-c2ccnn2C)c2ccnc(-c3ccn[nH]3)c2n1 (stereo not given) + Cc1cncc(-c2nc(NCCc3c[nH]c4ccccc34)c3ncn(C(C)C)c3n2)c1
- IC50 (second compound 0.1 µM): > 1000 nM
- IC50 (second compound 0.316 µM): > 1000 nM
- IC50 (second compound 1 µM): > 1000 nM
- IC50 (second compound 3.16 µM): > 1000 nM
- IC50 (second compound 10 µM): < 3.16 nM
- viability, T/C (second compound 0.1 µM, first compound 0.00316 µM): 87.9%
- viability, T/C (second compound 0.1 µM, first compound 0.01 µM): 123%
- viability, T/C [1]: 112%
- viability, T/C [2]: 89.6%
- viability, T/C [3]: 81.2%
- viability, T/C [4]: 54.9%
- viability, T/C (second compound 0.316 µM, first compound 0.00316 µM): 121%
- viability, T/C (second compound 0.316 µM, first compound 0.01 µM): 150%
- viability, T/C [7]: 114%
- viability, T/C [8]: 81.3%
- viability, T/C [9]: 81.6%
- viability, T/C [10]: 70.2%
- viability, T/C (second compound 1 µM, first compound 0.00316 µM): 114%
- viability, T/C (second compound 1 µM, first compound 0.01 µM): 122%
- viability, T/C [13]: 137%
- viability, T/C [14]: 88%
- viability, T/C [15]: 72.2%
- viability, T/C [16]: 53.3%
- viability, T/C (second compound 3.16 µM, first compound 0.00316 µM): 67.2%
- viability, T/C (second compound 3.16 µM, first compound 0.01 µM): 60.2%
- viability, T/C [19]: 77.6%
- viability, T/C [20]: 70.6%
- viability, T/C [21]: 67.8%
- viability, T/C [22]: 72.2%
- viability, T/C (second compound 10 µM, first compound 0.00316 µM): 4.75%
- viability, T/C (second compound 10 µM, first compound 0.01 µM): 5.66%
- viability, T/C [25]: 2.57%
- viability, T/C [26]: 2.16%
- viability, T/C [27]: 2.35%
- viability, T/C [28]: 5.11%

SMILES: COc1ccc([C@@H](O)c2cc(-c3ncnc4cc(N5CCOCC5)ccc34)c(F)cc2Cl)nn1 + Cc1cncc(-c2nc(NCCc3c[nH]c4ccccc34)c3ncn(C(C)C)c3n2)c1
- IC50 (second compound 0.1 µM): 8950 nM
- IC50 (second compound 0.316 µM): 7370 nM
- IC50 (second compound 1 µM): > 10000 nM
- IC50 (second compound 3.16 µM): > 10000 nM
- IC50 (second compound 10 µM): < 31.6 nM
- viability, T/C [1]: 152%
- viability, T/C [2]: 91.7%
- viability, T/C [3]: 96.2%
- viability, T/C [4]: 89.5%
- viability, T/C [5]: 63.5%
- viability, T/C [6]: 51.4%
- viability, T/C [7]: 116%
- viability, T/C [8]: 125%
- viability, T/C [9]: 81.6%
- viability, T/C [10]: 94.9%
- viability, T/C [11]: 81%
- viability, T/C [12]: 38.1%
- viability, T/C [13]: 137%
- viability, T/C [14]: 112%
- viability, T/C [15]: 119%
- viability, T/C [16]: 86.1%
- viability, T/C [17]: 79.2%
- viability, T/C [18]: 64.2%
- viability, T/C [19]: 108%
- viability, T/C [20]: 80.2%
- viability, T/C [21]: 86.3%
- viability, T/C [22]: 69.8%
- viability, T/C [23]: 43.4%
- viability, T/C [24]: 58.5%
- viability, T/C [25]: 3.67%
- viability, T/C [26]: 4.08%
- viability, T/C [27]: 3.62%
- viability, T/C [28]: 2.73%
- viability, T/C [29]: 3.64%
- viability, T/C [30]: 3.08%

SMILES: O=C(C=Cn1cnc(-c2cc(C(F)(F)F)cc(C(F)(F)F)c2)n1)NNc1cnccn1 + Cc1cncc(-c2nc(NCCc3c[nH]c4ccccc34)c3ncn(C(C)C)c3n2)c1
- IC50 (second compound 0.1 µM): > 3000 nM
- IC50 (second compound 0.316 µM): 639 nM
- IC50 (second compound 1 µM): 1100 nM
- IC50 (second compound 3.16 µM): 740 nM
- IC50 (second compound 10 µM): < 9.49 nM
- viability, T/C (second compound 0.1 µM, first compound 0.00949 µM): 86.6%
- viability, T/C (second compound 0.1 µM, first compound 0.03 µM): 94.1%
- viability, T/C (second compound 0.1 µM, first compound 0.0949 µM): 66.5%
- viability, T/C (second compound 0.1 µM, first compound 0.3 µM): 56.2%
- viability, T/C (second compound 0.1 µM, first compound 0.949 µM): 53.2%
- viability, T/C (second compound 0.1 µM, first compound 3 µM): 44.3%
- viability, T/C (second compound 0.316 µM, first compound 0.00949 µM): 95.5%
- viability, T/C (second compound 0.316 µM, first compound 0.03 µM): 90.8%
- viability, T/C (second compound 0.316 µM, first compound 0.0949 µM): 110%
- viability, T/C (second compound 0.316 µM, first compound 0.3 µM): 64.9%
- viability, T/C (second compound 0.316 µM, first compound 0.949 µM): 47.1%
- viability, T/C (second compound 0.316 µM, first compound 3 µM): 37.3%
- viability, T/C (second compound 1 µM, first compound 0.00949 µM): 112%
- viability, T/C (second compound 1 µM, first compound 0.03 µM): 94.7%
- viability, T/C (second compound 1 µM, first compound 0.0949 µM): 80.7%
- viability, T/C (second compound 1 µM, first compound 0.3 µM): 79.7%
- viability, T/C (second compound 1 µM, first compound 0.949 µM): 50.4%
- viability, T/C (second compound 1 µM, first compound 3 µM): 31.4%
- viability, T/C (second compound 3.16 µM, first compound 0.00949 µM): 120%
- viability, T/C (second compound 3.16 µM, first compound 0.03 µM): 103%
- viability, T/C (second compound 3.16 µM, first compound 0.0949 µM): 93.1%
- viability, T/C (second compound 3.16 µM, first compound 0.3 µM): 60.6%
- viability, T/C (second compound 3.16 µM, first compound 0.949 µM): 42.3%
- viability, T/C (second compound 3.16 µM, first compound 3 µM): 47.6%
- viability, T/C (second compound 10 µM, first compound 0.00949 µM): 16.9%
- viability, T/C (second compound 10 µM, first compound 0.03 µM): 7.37%
- viability, T/C (second compound 10 µM, first compound 0.0949 µM): 15%
- viability, T/C (second compound 10 µM, first compound 0.3 µM): 20.5%
- viability, T/C (second compound 10 µM, first compound 0.949 µM): 22.1%
- viability, T/C (second compound 10 µM, first compound 3 µM): 25.8%
